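48-hour exposure; five concentrations; linearly interpolated endpoints. The concentration for 50% growth inhibition is given as GI50.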 The source made the active and inactive calls. Cut-off read from the data, not from the text of the source: active = GI50 up to about 1.1 µM and inactive = higher.
Experiments:
Assay in all cases: inhibition of tumour cell growth, NCI panel, 48 h
SNB-19 = test system: SNB-19
MOLT-4 = test system: MOLT-4
NCI/ADR-RES = test system: NCI/ADR-RES
RPMI-8226 = test system: RPMI-8226
OVCAR-8 = test system: OVCAR-8
A549 = test system: A549
MCF7 = test system: MCF7
UACC-62 = test system: UACC-62
K562 = test system: K562
Malme-3M = test system: Malme-3M
OVCAR-5 = test system: OVCAR-5
SK-MEL-28 = test system: SK-MEL-28
HCT-116 = test system: HCT-116
NCI-H226 = test system: NCI-H226
RXF 393 = test system: RXF 393
NCI-H23 = test system: NCI-H23
HL-60 = test system: HL-60
SF-539 = test system: SF-539
DU-145 = test system: DU-145
HCC 2998 = test system: HCC 2998

Compound | GI50 (SNB-19) | GI50 (MOLT-4) | GI50 (NCI/ADR-RES) | GI50 (RPMI-8226) | GI50 (OVCAR-8) | GI50 (A549) | GI50 (MCF7) | GI50 (UACC-62) | GI50 (K562) | GI50 (Malme-3M) | GI50 (OVCAR-5) | GI50 (SK-MEL-28) | GI50 (HCT-116) | GI50 (NCI-H226) | GI50 (RXF 393) | GI50 (NCI-H23) | GI50 (HL-60) | GI50 (SF-539) | GI50 (DU-145) | GI50 (HCC 2998)
NCCNS(=O)(=O)c1ccc(N)cc1 | > 100 µM (inactive) | > 100 µM (inactive) | > 100 µM (inactive) | > 100 µM (inactive) | > 100 µM (inactive) | > 100 µM (inactive) | > 100 µM (inactive) | > 100 µM (inactive) | > 100 µM (inactive) | > 100 µM (inactive) | > 100 µM (inactive) | > 100 µM (inactive) | > 100 µM (inactive) | > 100 µM (inactive) | > 100 µM (inactive) | > 100 µM (inactive) | 18.7 µM (inactive) | 49.1 µM (inactive) | > 100 µM (inactive) | 
S=C1N=C(Cl)/C(=C\c2ccco2)N1 | > 100 µM (inactive) | > 10 µM (inactive) | > 100 µM (inactive) | > 100 µM (inactive) | > 100 µM (inactive) | > 100 µM (inactive) | > 100 µM (inactive) | > 100 µM (inactive) | > 100 µM (inactive) | > 100 µM (inactive) | > 100 µM (inactive) | > 100 µM (inactive) | > 100 µM (inactive) | > 80.5 µM (inactive) | > 100 µM (inactive) | > 100 µM (inactive) | > 70.5 µM (inactive) | > 100 µM (inactive) | > 100 µM (inactive) | 
OCC(CCc1c[nH]c2ccccc12)c1c[nH]c2ccccc12 (stereo not given) | 16.7 µM (inactive) | 14.5 µM (inactive) | 18 µM (inactive) | 27 µM (inactive) | 20.7 µM (inactive) | 17.6 µM (inactive) | 15.5 µM (inactive) | 14.1 µM (inactive) | 18.2 µM (inactive) | 17 µM (inactive) | 17.4 µM (inactive) | 20.5 µM (inactive) | 15.5 µM (inactive) | 18.1 µM (inactive) | 15.3 µM (inactive) | 15.6 µM (inactive) | 8.95 µM (inactive) | 18.4 µM (inactive) | 16.7 µM (inactive) | 
CCN=C=NCCCN(C)C | > 100 µM (inactive) | > 100 µM (inactive) | > 100 µM (inactive) | > 100 µM (inactive) | > 100 µM (inactive) | > 100 µM (inactive) | > 100 µM (inactive) | > 100 µM (inactive) | > 100 µM (inactive) | > 100 µM (inactive) | > 100 µM (inactive) | > 100 µM (inactive) | > 100 µM (inactive) | > 100 µM (inactive) | > 100 µM (inactive) | > 100 µM (inactive) | > 100 µM (inactive) | > 100 µM (inactive) | > 100 µM (inactive) | 
CC(=O)OC[C@@]12CC[C@H]3C(C)(C)CCC[C@]3(C)[C@H]1C[C@@H](C1=CC(=O)O[C@H]1O)O2 | 16.7 µM (inactive) | 1.36 µM (inactive) | 4.5 µM (inactive) | 2.15 µM (inactive) | 3.18 µM (inactive) | 6.97 µM (inactive) | 1.58 µM (inactive) | 1.94 µM (inactive) | 1.48 µM (inactive) |  | 19.7 µM (inactive) | 1.77 µM (inactive) | 2.84 µM (inactive) |  |  | 2.04 µM (inactive) |  | 2.39 µM (inactive) | 7.29 µM (inactive) | 1.61 µM (inactive)
CC(C)(C)c1cc2c(O)c(c1)C(c1ccccc1)c1cc(C(C)(C)C)cc(c1O)Cc1cc(C(C)(C)C)cc(c1O)C(c1ccccc1)c1cc(C(C)(C)C)cc(c1O)C2 (stereo not given) | > 100 µM (inactive) | > 100 µM (inactive) | > 100 µM (inactive) |  | > 100 µM (inactive) | > 100 µM (inactive) | > 100 µM (inactive) | > 100 µM (inactive) | > 100 µM (inactive) |  | > 100 µM (inactive) | > 100 µM (inactive) | > 100 µM (inactive) |  | > 100 µM (inactive) | > 100 µM (inactive) | 28.7 µM (inactive) | > 100 µM (inactive) | > 100 µM (inactive) | > 100 µM (inactive)
O=C(Oc1ccccc1)N1c2ccccc2[C@@]23O[C@]24CCC[C@H]3C#C/C=C\C#C[C@H]14 | 15.7 µM (inactive) | 0.706 µM (active) | 14.4 µM (inactive) | 2.82 µM (inactive) | 11.9 µM (inactive) | 0.0942 µM (active) | 6.5 µM (inactive) | 7.48 µM (inactive) | 15.6 µM (inactive) | 10.4 µM (inactive) | 11.8 µM (inactive) | 14 µM (inactive) | 11.4 µM (inactive) | 17.4 µM (inactive) | 10.1 µM (inactive) | 11.1 µM (inactive) | 0.506 µM (active) | 20.4 µM (inactive) | 1.05 µM (active) | 
Cc1ccc(S(=O)(=O)OC2CN3CCC2CC3)cc1 (stereo not given) | > 100 µM (inactive) | > 100 µM (inactive) | > 100 µM (inactive) | > 100 µM (inactive) | > 100 µM (inactive) | > 100 µM (inactive) | > 100 µM (inactive) | > 100 µM (inactive) | > 100 µM (inactive) | > 100 µM (inactive) | > 100 µM (inactive) | > 100 µM (inactive) | > 100 µM (inactive) | > 100 µM (inactive) | > 100 µM (inactive) | > 100 µM (inactive) | 22.6 µM (inactive) | > 100 µM (inactive) | > 100 µM (inactive) | 
CC(C)(C)OC(=O)N1[C@@H]2Cc3ccc(N)cc3[C@@]1(C)c1ccccc12 | 44.1 µM (inactive) | 19 µM (inactive) | 22.4 µM (inactive) | 21.8 µM (inactive) |  | 35.6 µM (inactive) | 34.1 µM (inactive) | 20.6 µM (inactive) | 24.8 µM (inactive) | 29.9 µM (inactive) | 42.1 µM (inactive) |  | 18.7 µM (inactive) |  | 15 µM (inactive) | 19.3 µM (inactive) | 20.1 µM (inactive) |  | 30.3 µM (inactive) | 21.3 µM (inactive)
Cc1cc2nc(N3C(=O)/C(=C/c4cccc([N+](=O)[O-])c4)N=C3c3ccccc3)sc2cc1C | 34.1 µM (inactive) | 12.9 µM (inactive) | 28.4 µM (inactive) | 21.1 µM (inactive) | 21.4 µM (inactive) | 36.1 µM (inactive) | 16.1 µM (inactive) | 33.5 µM (inactive) | 30.1 µM (inactive) |  | 40.2 µM (inactive) | 57.8 µM (inactive) | 23.9 µM (inactive) |  | 15.6 µM (inactive) |  | 19.8 µM (inactive) | 39.4 µM (inactive) | 42.8 µM (inactive) | 21.4 µM (inactive)
O=c1/c(=C/c2ccc([N+](=O)[O-])o2)sc2n1[C@@H](c1ccc(Cl)cc1)C=C(c1cc(F)c(Cl)cc1Cl)N=2 | 15.9 µM (inactive) | 12.9 µM (inactive) | 30.8 µM (inactive) | 5.16 µM (inactive) | 4.16 µM (inactive) | 30.3 µM (inactive) | 13.3 µM (inactive) | 14.8 µM (inactive) | 13.2 µM (inactive) | 17.9 µM (inactive) | 16.3 µM (inactive) | 24.2 µM (inactive) | 3.56 µM (inactive) | 15.8 µM (inactive) | 13.2 µM (inactive) | 15.3 µM (inactive) | 12.3 µM (inactive) | 22.4 µM (inactive) | 17.7 µM (inactive) | 
COc1ccc(/N=N/c2c(C)c(C#N)c(=S)n(C3OC(CO)C(O)C(O)C3O)c2-c2ccccc2)cc1 (stereo not given) | 41.3 µM (inactive) | 9.04 µM (inactive) | 93.1 µM (inactive) | 36.1 µM (inactive) |  | 36.7 µM (inactive) | 38.3 µM (inactive) | 18.8 µM (inactive) | 19.3 µM (inactive) | 30.6 µM (inactive) | 36.9 µM (inactive) | 25.3 µM (inactive) | 30.1 µM (inactive) |  | 28 µM (inactive) | 28.4 µM (inactive) | 58.2 µM (inactive) | 42.7 µM (inactive) | 32.1 µM (inactive) | 88.5 µM (inactive)
COC1=C(OC)C(=O)C(Cc2c(C)nc3sccn23)=C(C)C1=O | 16 µM (inactive) | 2.01 µM (inactive) | 14.4 µM (inactive) | 2.48 µM (inactive) | 14.9 µM (inactive) | 11 µM (inactive) | 20.1 µM (inactive) | 10.6 µM (inactive) | 18.7 µM (inactive) | 10.9 µM (inactive) | 16.8 µM (inactive) | 11 µM (inactive) | 19.3 µM (inactive) |  | 22.8 µM (inactive) | 10.9 µM (inactive) |  | 16.5 µM (inactive) | 18.1 µM (inactive) | 20.9 µM (inactive)
COc1cc(OC)cc(OCc2ccc3nc(-c4ccccc4)c(Cl)nc3c2)c1 | 25.9 µM (inactive) | 25.9 µM (inactive) | 25 µM (inactive) | 33.4 µM (inactive) | 25.8 µM (inactive) | 49.9 µM (inactive) | 58.6 µM (inactive) | 32.4 µM (inactive) |  | 11 µM (inactive) | 49 µM (inactive) | > 100 µM (inactive) | 29 µM (inactive) |  |  | 17.3 µM (inactive) | 54.6 µM (inactive) | 18.4 µM (inactive) | 52.7 µM (inactive) | 32.7 µM (inactive)
Cc1ccc(S(=O)(=O)n2cc(C#N)c(C#N)c2)cc1 | > 10 µM (inactive) | 31.8 µM (inactive) | 31.8 µM (inactive) |  | 31.8 µM (inactive) | 24.7 µM (inactive) | 22.3 µM (inactive) | 17.3 µM (inactive) | 33.3 µM (inactive) | 15.6 µM (inactive) | 27.9 µM (inactive) | 15.5 µM (inactive) | 31 µM (inactive) |  | 32.3 µM (inactive) | 29.8 µM (inactive) | 26.5 µM (inactive) | 19.6 µM (inactive) | 31.4 µM (inactive) | 24.3 µM (inactive)
